Reference: patent publication US10807959B2, “WDR5-MLL1 inhibitors and modulators” (Vanderbilt University, priority 2018, dated 2020)
pKi: −log10 of the molar value.

Assays:
[1] = molecular target: WDR5 (Homo sapiens (Human), UniProt P61964); experiment: TR-FRET binding assay, displacement of 10mer-Thr-FAM probe from His-tagged WDR5; conditions: Inhibition of WDR5 by TR-FRET assay
Description: The LanthaScreenTM Elite Tb-anti-HIS Antibody from ThermoFisher Scientific was used for this purpose. […] The ratio of the 520 and 495 signals are then utilized to generate a dose-response curve to calculate an IC50 value. […] WDR[…] tag protein is used at 2 nM.

[2] = test system: MV4:11 cells; experiment: Cellular viability / anti-proliferative activity, CellTiter-Glo, 7 day protocol; assay type: cell-based, human; conditions: 168 h
Description: Anti proliferative activity using MLL-harboring cell lines. MV4:11 cells are grown in RPMI-1640 media supplemented with 10% FBS and 1% penicillin/streptomycin. Viability assays are performed by dispensing […] into each well of an opaque 384-well plate and adding compounds at the indicated concentrations in a final volume of 32 μL and a final concentration of DMSO of 0.1% for all samples. After a set incubation period, 7 day protocol, the viability of cells in each well is assessed using the CellTiter-Glo assay (Promega), read on a GloMax 96 Microplane Luminometer (Promega). Serial dilutions of each cell type are included in all assays to generate standard curves and determine assay measurements are taken within the dynamic range of the instrument. GI50 values are calculated based on three biological replicates, each with three technical replicates. Data are expressed as mean plus/minus S.E.M.

[3] = cellular proliferation of MV4:11 human cancer cell lines, 7 day

COc1cc(OC)cc(C(C)NC(=O)c2cc(CNC3=NCCN3)cc(-c3ccc(F)nc3C)c2)c1 (stereo not drawn) [Example 7, 3-(((4,5-Dihydro-1H-imidazol-2-yl)amino)methyl)-N-(1-(3,5-dimethoxyphenyl)ethyl)-5-(6-fluoro-2-methylpyridin-3-yl)benzamide]
pKi [1]: 9.96 | GI50 [2, 3]: 280 nM

Cc1cc(-c2cc(CNC3=NCCN3)cc(C(=O)NCc3ccc(Cl)c(C)c3)c2)cc(C)n1 [Example 41, N-(4-chloro-3-methylbenzyl)-3-(((4,5-dihydro-1H-imidazol-2-yl)amino)methyl)-5-(2,6-dimethylpyridin-4-yl)benzamide]
pKi [1]: > 10.00 | GI50 [2, 3]: 170 nM

COc1ccnc(CNC(=O)c2cc(CNC3=NCCC3)cc(-c3ccc(F)nc3C)c2)c1 [Example 53, 3-(((3,4-Dihydro-2H-pyrrol-5-yl)amino)methyl)-5-(6-fluoro-2-methylpyridin-3-yl)-N-((4-methoxypyridin-2-yl)methyl)benzamide]
pKi [1]: 9.28 | GI50 [2, 3]: 630 nM

Cc1cc(C(C)NC(=O)c2cc(CNC3=NCCC3)cc(-c3ccc(F)nc3C)c2)ncc1Cl (stereo not drawn) [Example 54, N-(1-(5-Chloro-4-methylpyridin-2-yl)ethyl)-3-(((3,4-dihydro-2H-pyrrol-5-yl)amino)methyl)-5-(6-fluoro-2-methylpyridin-3-yl)benzamide]
pKi [1]: 9.51 | GI50 [2, 3]: 180 nM

COc1cc(OC)cc(C(C)NC(=O)c2cc(CNC3=NCCC3)cc(-c3ccc(F)nc3C)c2)c1 (stereo not drawn) [Example 55, 3-(((3,4-Dihydro-2H-pyrrol-5-yl)amino)methyl)-N-(1-(3,5-dimethoxyphenyl)ethyl)-5-(6-fluoro-2-methylpyridin-3-yl)benzamide]
pKi [1]: 7.96 | GI50 [2, 3]: 440 nM

COc1cc(CN(C)C(=O)c2cc(CNC3=NCCC3)cc(-c3ccc(F)nc3C)c2)cc(OC)c1 [Example 56, 3-(((3,4-Dihydro-2H-pyrrol-5-yl)amino)methyl)-N-(3,5-dimethoxybenzyl)-5-(6-fluoro-2-methylpyridin-3-yl)-N-methylbenzamide]
pKi [1]: 7.70 | GI50 [2, 3]: 6400 nM

COc1cc(CNC(=O)c2cc(CNC3=NCCC3)cc(-c3ccnc(C)c3)c2)cc(OC)c1 [Example 57, 3-(((3,4-Dihydro-2H-pyrrol-5-yl)amino)methyl)-N-(3,5-dimethoxybenzyl)-5-(2-methylpyridin-4-yl)benzamide]
pKi [1]: 8.52 | GI50 [2, 3]: 2800 nM

COc1cc(CNC(=O)c2cc(CNC3=NCCC3)cc(-c3ccc(F)cc3C)c2)cc(OC)c1 [Example 59, 5-(((3,4-Dihydro-2H-pyrrol-5-yl)amino)methyl)-N-(3,5-dimethoxybenzyl)-4′-fluoro-2′-methyl-[1,1′-biphenyl]-3-carboxamide]
pKi [1]: 9.13 | GI50 [2, 3]: 790 nM

COc1cc(CNC(=O)c2cc(CNC3=NCCC3)cc(-c3ccc(F)nc3C)c2)cc(OC)c1 [Example 60, 3-(((3,4-Dihydro-2H-pyrrol-5-yl)amino)methyl)-N-(3,5-dimethoxybenzyl)-5-(6-fluoro-2-methylpyridin-3-yl)benzamide]
pKi [1]: 9.26 | GI50 [2, 3]: 360 nM

Cc1cc(CNC(=O)c2cc(CNC3=NCCC3)cc(-c3cccc(CO)c3)c2)ccc1Cl [Example 63, N-(4-Chloro-3-methylbenzyl)-5-(((3,4-dihydro-2H-pyrrol-5-yl)amino)methyl)-3′-(hydroxymethyl)-[1,1′-biphenyl]-3-carboxamide]
pKi [1]: 9.06 | GI50 [2, 3]: 1900 nM

Cc1cc(CNC(=O)c2cc(CNC3=NCCC3)cc(-c3cccnc3C(F)(F)F)c2)ccc1Cl [Example 67, N-(4-Chloro-3-methylbenzyl)-3-(((3,4-dihydro-2H-pyrrol-5-yl)amino)methyl)-5-(2-(trifluoromethyl)pyridin-3-yl)benzamide]
pKi [1]: > 10.00 | GI50 [2, 3]: 50 nM

Cc1cc(CNC(=O)c2cc(CNC3=NCCC3)cc(-c3ccc(F)cc3C(F)(F)F)c2)ccc1Cl [Example 68, N-(4-chloro-3-methylbenzyl)-5-(((3,4-dihydro-2H-pyrrol-5-yl)amino)methyl)-4′-fluoro-2′-(trifluoromethyl)-[1,1′-biphenyl]-3-carboxamide]
pKi [1]: 9.52 | GI50 [2, 3]: 160 nM

COc1cc(F)ccc1-c1cc(CNC2=NCCC2)cc(C(=O)NCc2ccc(Cl)c(C)c2)c1 [Example 70, N-(4-chloro-3-methylbenzyl)-5-(((3,4-dihydro-2H-pyrrol-5-yl)amino)methyl)-4′-fluoro-2′-methoxy-[1,1′-biphenyl]-3-carboxamide]
pKi [1]: 9.30 | GI50 [2, 3]: 460 nM

Cc1cc(CNC(=O)c2cc(CNC3=NC(=O)CN3C)cc(-c3ccc(F)nc3C)c2)ccc1Cl [Example 71, N-(4-Chloro-3-methylbenzyl)-3-(6-fluoro-2-methylpyridin-3-yl)-5-(((1-methyl-4-oxo-4,5-dihydro-1H-imidazol-2-yl)amino)methyl)benzamide]
pKi [1]: 8.18 | GI50 [2, 3]: 5000 nM

Cc1cc(CNC(=O)c2cc(CNC3=NCCN3)cc(-c3ccc(F)nc3C)n2)ccc1Cl [Example 74, N-(4-Chloro-3-methylbenzyl)-4-(((4,5-dihydro-1H-imidazol-2-yl)amino)methyl)-6′-fluoro-2′-methyl-[2,3′-bipyridine]-6-carboxamide]
pKi [1]: 9.34 | GI50 [2, 3]: 680 nM

Cc1ccnc(C(NC(=O)c2cc(CNC3=NCCC3)cc(-c3ccc(F)cc3C(F)(F)F)n2)C2CC2)c1 (stereo not drawn) [Example 90, N-(Cyclopropyl(4-methylpyridin-2-yl)methyl)-4-(((3,4-dihydro-2H-pyrrol-5-yl)amino)methyl)-6-(4-fluoro-2-(trifluoromethyl)phenyl)picolinamide]
pKi [1]: 8.92 | GI50 [2, 3]: 750 nM

COc1cc(CNC(=O)c2cc(CNC3=NCCC3)nc(-c3ccc(F)cc3C(F)(F)F)c2)cc(OC)c1 [Example 91, 2-(((3,4-dihydro-2H-pyrrol-5-yl)amino)methyl)-N-(3,5-dimethoxybenzyl)-6-(4-fluoro-2-(trifluoromethyl)phenyl)isonicotinamide]
pKi [1]: 8.80 | GI50 [2, 3]: 460 nM

CCn1cc(-c2cc(CNC(=N)C3CC3)cc(C(=O)N[C@H](c3ccc(F)c(C)c3)C3CC3)c2)c(C(F)(F)F)n1 [Example 105, (S)-3-(Cyclopropanecarboximidamidomethyl)-N-(cyclopropyl(4-fluoro-3-methylphenyl)methyl)-5-(1-ethyl-3-(trifluoromethyl)-1H-pyrazol-4-yl)benzamide]
pKi [1]: > 10.00 | GI50 [2, 3]: 10 nM

CCn1cc(-c2cc(CNC(=N)C3CCC3)cc(C(=O)N[C@H](c3ccc(F)c(C)c3)C3CC3)c2)c(C(F)(F)F)n1 [Example 106, (S)-3-(Cyclobutanecarboximidamidomethyl)-N-(cyclopropyl(4-fluoro-3-methylphenyl)methyl)-5-(1-ethyl-3-(trifluoromethyl)-1H-pyrazol-4-yl)benzamide]
pKi [1]: > 10.00 | GI50 [2, 3]: 30 nM

COc1cc(OC)cc(C(C)NC(=O)c2cc(Cn3ccnc3C)cc(-c3ccc(F)nc3C)n2)c1 (stereo not drawn) [Example 159, N-(1-(3,5-Dimethoxyphenyl)ethyl)-6′-fluoro-2′-methyl-4-((2-methyl-1H-imidazol-1-yl)methyl)-[2,3′-bipyridine]-6-carboxamide]
pKi [1]: 8.41 | GI50 [2, 3]: 1200 nM

COc1cc(CNC(=O)c2cc(CNC3=NCCC3)cc(-c3ccc(F)cc3C)c2N)cc(OC)c1 [Example 168, 2-Amino-5-(((3,4-dihydro-2H-pyrrol-5-yl)amino)methyl)-N-(3,5-dimethoxybenzyl)-4′-fluoro-2′-methyl-[1,1′-biphenyl]-3-carboxamide]
pKi [1]: 8.28 | GI50 [2, 3]: 4800 nM

COc1cc(CNC(=O)c2cc(CNC3=NCCN3)cc(-c3ccc(F)cc3C)c2N)cc(OC)c1 [Example 169, 2-Amino-5-(((4,5-dihydro-1H-imidazol-2-yl)amino)methyl)-N-(3,5-dimethoxybenzyl)-4′-fluoro-2′-methyl-[1,1′-biphenyl]-3-carboxamide]
pKi [1]: 8.21 | GI50 [2, 3]: 14000 nM

CNc1c(C(=O)N(C)Cc2cc(OC)cc(OC)c2)cc(CNC2=NCCC2)cc1-c1ccc(F)cc1C [Example 170, 5-(((3,4-dihydro-2H-pyrrol-5-yl)amino)methyl)-N-(3,5-dimethoxybenzyl)-4′-fluoro-N,2′-dimethyl-2-(methylamino)-[1,1′-biphenyl]-3-carboxamide]
pKi [1]: 7.72 | GI50 [2, 3]: 4700 nM

CNc1c(C(=O)N(C)Cc2cc(OC)cc(OC)c2)cc(CNC2=NCCN2)cc1-c1ccc(F)cc1C [Example 171, 5-(((4,5-Dihydro-1H-imidazol-2-yl)amino)methyl)-N-(3,5-dimethoxybenzyl)-4′-fluoro-N,2′-dimethyl-2-(methylamino)-[1,1′-biphenyl]-3-carboxamide]
pKi [1]: 7.72 | GI50 [2, 3]: 3800 nM

COc1cc(CNC(=O)c2cc(CNC3=NCCC3)cc(-c3ccc(F)cc3C)c2NC(C)=O)cc(OC)c1 [Example 172, 2-Acetamido-5-(((3,4-dihydro-2H-pyrrol-5-yl)amino)methyl)-N-(3,5-dimethoxybenzyl)-4′-fluoro-2′-methyl-[1,1′-biphenyl]-3-carboxamide]
pKi [1]: 8.68 | GI50 [2, 3]: 240 nM

COc1cc(CNC(=O)c2ccc(F)c(CNC3=NCCN3)c2)cc(OC)c1 [Example B15, 3-(((4,5-dihydro-1H-imidazol-2-yl)amino)methyl)-N-(3,5-dimethoxybenzyl)-4-fluorobenzamide]
GI50 ([2]; Homo sapiens, MV4:11 leukemia cells after a 7 day incubation period): 893 nM
